Results reported in patent US7081349B1 (The General Hospital Corporation, priority 1994, dated 2006).
Like-named read-outs stand apart in the source and are kept apart here.

Key:
[1] = target: T1, Xenopus high-affinity melatonin receptor (Xenopus laevis, UniProt P49219); test: 125I-melatonin saturation and competition binding, whole COS-7 cells transiently expressing Xenopus receptor cDNA; parameters: expressed in transfected cells; host or cells: COS-7 cells, transient, pcDNAI
T1 sequence (P49219 1-420): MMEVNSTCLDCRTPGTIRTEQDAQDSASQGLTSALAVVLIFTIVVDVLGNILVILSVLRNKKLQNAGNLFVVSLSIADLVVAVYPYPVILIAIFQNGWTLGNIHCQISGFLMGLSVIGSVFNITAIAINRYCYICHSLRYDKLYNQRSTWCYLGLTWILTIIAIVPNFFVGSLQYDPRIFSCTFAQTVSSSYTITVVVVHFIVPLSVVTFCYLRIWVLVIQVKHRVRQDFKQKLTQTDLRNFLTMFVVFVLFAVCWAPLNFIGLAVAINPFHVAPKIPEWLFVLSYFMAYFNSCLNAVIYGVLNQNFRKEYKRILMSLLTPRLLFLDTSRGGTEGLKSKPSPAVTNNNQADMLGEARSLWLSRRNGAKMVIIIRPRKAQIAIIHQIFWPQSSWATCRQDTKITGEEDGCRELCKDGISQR
Procedure: Three days after transfection, medium was removed, the culture dishes were washed with PBS, and the cells were harvested. The cells were then pelleted (2500 rpm; 10 min, 4° C.) and stored at −80° C. Whole cell binding studies were performed by thawing the cells and resuspending them in binding buffer (50 mM Tris-HCl, pH 7.4, with 5 mM MgCl2) at a concentration of 456 μg protein 1 ml. […] Protein determinations were performed using the Pierce BCA Protein Assay (The Pierce Chemical Co., Rockford, Ill.). Binding data were analyzed by computer using the LIGAND Program of Munson and Rodbard ((1980) supra).
(§1) The Bmax value using the whole cell binding assay was 67±7 fmol/mg of protein.

[2] = target: T2, sheep high-affinity melatonin 1a receptor (Ovis aries, UniProt P48040); test: 125I-melatonin saturation and competition binding, whole COS-7 cells transfected with sheep receptor cDNA
T2 construct: expressed in transfected cells; host or cells: COS-7 cells, transient, pcDNAI, DEAE-dextran
Excerpt: (§2) Data shown are representative of three experiments. […] The data shown are representative of at least three experiments.
For ligand binding studies, the sheep receptor cDNA (SEQ ID NO:3) in pcDNAI was introduced into COS-7 cells using the DEAE-dextran method (Cullen, B. R. Methods Enzymol. (1987) 152:684-704). Approximately two to three days after transfection, cell culture medium was removed, the cultures dishes were washed with PBS, and the cells were harvested.
The cells were then pelleted (2500 rpm; 10 min, 4° C.) and stored at −80° C. Whole cell binding studies were performed by thawing the cells and resuspending them in binding buffer (50 mM Tris-HCl, pH 7.4, with 5 mM MgCl2) at a concentration of 200-500 μg protein/ml. The cell suspension was incubated with ^125I-Mel with or without drugs in a total reaction volume of 0.2 ml binding buffer; the suspension as incubated in a shaker bath for 1.5 hr at 25° C. All determinations were done in either duplicate or triplicate. Protein measurements were performed using the Pierce BCA Protein Assay. Binding data were analyzed by computer using the LIGAND Program of Munson and Rodbard (1980).

human Mel-1b receptor = target: T3, human Mel-1b receptor (Homo sapiens, UniProt P49286); test: 125I-Mel saturation and competition binding, membranes of COS-1 cells transfected with human Mel-1b receptor cDNA; details: for Ki: 200 pM 125I-Mel, mean ± SE of 3-5 experiments; for Ratio (Mel-1a/Mel-1b): ratio of Ki values; for inhibition of specific 125I-Mel binding: micromolar concentrations, human Mel-1b
T3 construct: expressed in transfected cells; host or cells: COS-1 cells, transient, pcDNA3; crude membrane homogenates
T3 sequence (P49286 1-362): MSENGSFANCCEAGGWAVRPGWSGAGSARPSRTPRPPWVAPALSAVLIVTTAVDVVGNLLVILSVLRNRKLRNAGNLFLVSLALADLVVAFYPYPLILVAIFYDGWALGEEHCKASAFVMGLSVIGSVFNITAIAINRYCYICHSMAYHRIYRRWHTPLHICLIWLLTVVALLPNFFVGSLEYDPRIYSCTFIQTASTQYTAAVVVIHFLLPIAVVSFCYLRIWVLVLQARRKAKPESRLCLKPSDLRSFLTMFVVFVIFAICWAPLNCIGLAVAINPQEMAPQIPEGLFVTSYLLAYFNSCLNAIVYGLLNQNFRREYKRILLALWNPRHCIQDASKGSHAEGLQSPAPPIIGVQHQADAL
Procedure: Inset: Scatchard plot of saturation data. […] Data shown are representative of five experiments.
(§3) The data shown are mean values of three to five experiments for each drug.
Binding and pharmacological properties of the human Mel-1b receptor were examined by transiently expressing the receptor cDNA in COS-1 cells.
(§4) Expression studies were performed as follows. COS-1 and NIH 3T3 cells were grown as monolayers in Dulbeccols modified Eagle's medium (DMEM) supplemented with 10% fetal calf serum, penicillin (50 U/ml), and streptomycin (50 μg/ml), in 5% CO2 at 37° C. […] Three days after transfection, medium was removed, and the dishes were washed with PBS. The cells were harvested in Hank's balanced salt solution and centrifuged (1400×g; 10 min, 4° C.). The resultant pellets were stored at −80° C. Crude membrane homogenates were prepared by thawing the pellets on ice and resuspending them in TME buffer (pH 7.4) consisting of 50 mM Tris base, 12.5 mM MgCl2, 1 mM EDTA, and supplemented with 10 μg/ml aprotinin and leupeptin, and 100 μM phenylmethylsulfonylfluoride. The cells were then homogenized using a dounce homogenizer and centrifuged (45,000×g; 15 min at 4° C.). The resulting pellet was resuspended with a dounce homogenizer in TME and frozen at […] in aliquots.
(§5) Incubations were initiated by the addition of the membrane preparation and were conducted at 37° C. for 60 min. […] All determinations were done in either duplicate or triplicate.
(§6) Protein measurements were performed by the method of Bradford (Bradford, M. M. (1976) Anal. Biochem. 72, 248-254), using bovine serum albumin as the standard.
(§7) For comparison, binding and pharmacology of COS-1 cells transiently expressing the human Mel-1a receptor were assessed in parallel.

human Mel-1a receptor = target: T4, human Mel-1a receptor (Homo sapiens, UniProt P48039); test: 125I-Mel saturation and competition binding, membranes of COS-1 cells transfected with human Mel-1a receptor cDNA; details: 100 pM 125I-Mel, mean ± SE of 3-5 experiments
T4 construct: expressed in transfected cells; host or cells: COS-1 cells, transient, pcDNA3; crude membrane homogenates
Procedure: as §3, §4, §5, §6, §7

human SCN = details: quantitative 125I-Mel autoradiography, Reppert et al. 1988; cited from earlier work
[3] = target: T5, human high-affinity melatonin 1a receptor (Homo sapiens, UniProt P48039); test: 125I-melatonin saturation and competition binding, COS-7 cells transfected with complete human Mel-1a receptor cDNA; details: 100 pM 125I-Mel, one-site model
T5 construct: expressed in transfected cells; host or cells: COS-7 cells, transient, pcDNAI
Excerpt: as §2

[4] = tested on: mock-transfected COS-7 cells; test: 125I-melatonin binding in mock-transfected COS-7 cells
Excerpt: as §1

mouse Mel-1a receptor = mouse Mel-1a receptor (Mus musculus, UniProt Q61184, F119L/I348L/K349P/L29M/L347F); details: COS-7 cells; comparable to sheep and human Mel-1a receptors
sheep Mel-1a receptor = target: T6, sheep Mel-1a receptor (Ovis aries, UniProt P48040); test: Inhibition of forskolin-stimulated cAMP accumulation in NIH 3T3 cells stably transfected with sheep receptor cDNA; type: cell-based; details: for effect of pertussis toxin pretreatment on melatonin inhibition of forskolin-stimulated cAMP: PTX 100 ng/ml, 18 hours, 1 μM melatonin, 10 μM forskolin
T6 construct: expressed in transfected cells
Procedure: The 100% value is the mean cAMP value induced with 10 μM forskolin. […] Cells were preincubated with either vehicle or pertussis toxin for 18 hours (PTX: 100 ng/ml; pertussis toxin was purchased from List, Campbell, Calif.). […] Data are the mean plus standard deviation for 3 plates for each treatment.
Transformed NIH 3T3 cells were plated on 35 mm dishes. After forty-eight hours, the cells were washed twice with DMEM, and then incubated with or without drugs (diluted in DMEM) for 10 min at 37° C. At the end of treatment, the medium was aspirated and 1 ml of 50 mM acetic acid was added. The cells were collected, transferred to an Eppendorf tube, boiled for 5 min, and centrifuged (13,750 rpm for 15 min). The supernatant was collected and assayed for cAMP. All determinations were done in triplicate. Cyclic AMP levels were determined in duplicate by radioimmunoassay by standard techniques.

[5] = target: T1, Xenopus high-affinity melatonin receptor; test: Inhibition of forskolin-stimulated cAMP accumulation in CHO cells stably transfected with Xenopus receptor cDNA; type: cell-based; parameters: expressed in transfected cells
Procedure: The 100% value is the mean cAMP value induced with 10 μM forskolin.
Transformed CHO cells were plated on 35 mm culture dishes. After 48 hours, the cells were washed twice with Ham's F-12 (Life Technologies, Bethesda, Md.). […] Following treatment, the medium was aspirated and 1 ml of 50 mM acetic acid was added to the culture dish. The cells were collected, transferred to an Eppendorf tube, boiled for 5 min, and centrifuged (13,750 rpm for 15 min). The supernatant was collected and assayed for cAMP. All determinations were performed in triplicate. Cyclic AMP levels were determined in duplicate by radioimmunoassay (New England Nuclear, Boston, Mass.).

[6] = 100 pM 125I-melatonin, COS-7 cells, Xenopus receptor, representative of three experiments, read-out: Ki, competition for 125I-melatonin binding
[7] = 100 pM 125I-Mel, COS-7 cells, sheep receptor, one-site model, read-out: Ki, competition for 125I-Mel binding

T6 sequence (P48040 whole entry): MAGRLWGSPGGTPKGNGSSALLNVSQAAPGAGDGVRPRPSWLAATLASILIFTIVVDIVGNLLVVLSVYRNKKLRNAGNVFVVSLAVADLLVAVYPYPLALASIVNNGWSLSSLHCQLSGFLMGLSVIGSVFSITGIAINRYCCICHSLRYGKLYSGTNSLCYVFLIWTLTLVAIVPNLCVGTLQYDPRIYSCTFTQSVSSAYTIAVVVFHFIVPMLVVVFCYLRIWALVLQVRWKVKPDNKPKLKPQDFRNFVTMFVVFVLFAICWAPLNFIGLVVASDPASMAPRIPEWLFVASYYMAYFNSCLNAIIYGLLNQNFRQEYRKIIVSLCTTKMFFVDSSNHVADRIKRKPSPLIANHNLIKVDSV
T2 sequence (P48040 whole entry): as above
T4 sequence (P48039 whole entry): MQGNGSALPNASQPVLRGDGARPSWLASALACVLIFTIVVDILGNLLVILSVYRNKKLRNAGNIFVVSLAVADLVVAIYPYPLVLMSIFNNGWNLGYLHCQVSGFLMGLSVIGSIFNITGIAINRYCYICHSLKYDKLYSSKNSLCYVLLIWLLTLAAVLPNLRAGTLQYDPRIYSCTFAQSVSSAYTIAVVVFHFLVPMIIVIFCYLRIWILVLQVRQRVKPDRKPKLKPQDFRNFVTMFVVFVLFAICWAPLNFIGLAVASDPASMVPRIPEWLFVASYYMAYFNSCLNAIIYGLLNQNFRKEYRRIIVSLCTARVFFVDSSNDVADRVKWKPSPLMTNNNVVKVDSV
T5 sequence (P48039 whole entry): as above
Chain of mouse Mel-1a receptor (Q61184 whole entry L29M/F119L/L347F/I348L/K349P): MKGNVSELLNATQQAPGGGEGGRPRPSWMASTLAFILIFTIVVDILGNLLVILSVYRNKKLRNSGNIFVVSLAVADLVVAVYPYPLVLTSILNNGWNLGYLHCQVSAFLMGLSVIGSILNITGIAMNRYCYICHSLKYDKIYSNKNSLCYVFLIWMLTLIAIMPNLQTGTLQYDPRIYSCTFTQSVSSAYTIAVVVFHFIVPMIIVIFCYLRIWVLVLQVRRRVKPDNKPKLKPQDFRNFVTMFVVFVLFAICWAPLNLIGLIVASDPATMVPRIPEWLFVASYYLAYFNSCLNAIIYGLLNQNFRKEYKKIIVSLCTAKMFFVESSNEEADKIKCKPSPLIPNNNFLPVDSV

COc1ccc2[nH]c(I)c(CCNC(C)=O)c2c1 [2-iodomelatonin]
Ki [1]: 0.11 nM
Ki [2]: 0.037 nM

COc1ccc2[nH]c(-c3ccccc3)c(CCNC(C)=O)c2c1 [2-phenylmelatonin]
Ki (human Mel-1b receptor): 0.26 ± 0.06 nM
Ratio (Mel-1a/Mel-1b) (human Mel-1b receptor): 0.8
Ki (human Mel-1a receptor): 0.21 ± 0.06 nM

NCCc1c[nH]c2ccc(O)cc12 [5-HT, 5-hydroxytryptamine]
Ki [1, 6]: > 100000 nM
inhibition of specific 125I-Mel binding (human Mel-1b receptor): did not inhibit
Ki [2, 7]: > 100000 nM
Ki (human Mel-1a receptor): > 10000 nM
affinity (human SCN): very low affinity
Ki [3]: > 100000 nM

COc1cc2c(CCNC(C)=O)c[nH]c2cc1Cl [6-chloromelatonin]
Ki [1, 6]: 3 nM
Ki [2, 7]: 0.25 nM
affinity (human SCN): high affinity

COc1cc2c(CCNC(C)=O)c[nH]c2cc1O [6-hydroxymelatonin]
Ki [1, 6]: 20 nM
Ki [2, 7]: 3 nM
Ki [3]: 2 nM

CC(=O)NCCc1c[nH]c2ccc(O)cc12 [NAS, N-acetyl-5-hydroxytryptamine]
Ki [1, 6]: 2000 nM
Ki (human Mel-1b receptor): 595 ± 127 nM
Ratio (Mel-1a/Mel-1b) (human Mel-1b receptor): 1.6
Ki [2, 7]: 140 nM
Ki (human Mel-1a receptor): 986 ± 137 nM
Ki [3]: 170 nM

COc1ccc2[nH]c(I)c(CCNC(C)=O)c2c1 [^125I-melatonin, 2-[^125I]-iodomelatonin]
Kd ([1]; saturation 5 to 1280 pM, COS-7 cells, Xenopus receptor, n=3 experiments, read-out: Kd of 125I-melatonin (Scatchard analysis)): 0.063 nM
Ki ([2]; FIG. 14a inset, COS-7 cells, sheep receptor, representative experiment, read-out: Ki value for the sheep receptor from Scatchard plot of saturation data): 0.036 nM

COc1ccc2[nH]c([125I])c(CCNC(C)=O)c2c1 [^125I-melatonin, 2-[^125I]-iodomelatonin]
specific binding of 125I-melatonin [4]: No specific binding

COc1ccc2[nH]cc(CCNC(C)=O)c2c1 [melatonin]
binding affinity (mouse Mel-1a receptor): high affinity
Ki [1, 6]: 1.3 nM
affinity (human SCN): high affinity
inhibition of forskolin-stimulated cAMP accumulation in vector-only cells (sheep Mel-1a receptor; melatonin 1 μM, NIH 3T3 cells with pcDNAI NEO lacking the sheep receptor cDNA): did not inhibit
effect on basal cAMP levels (sheep Mel-1a receptor; stably transfected NIH 3T3 lines, sheep receptor): did not alter basal cAMP levels
inhibition at 0.01 µM ([5]; CHO, read-out: maximal inhibition of the mean forskolin-stimulated cAMP concentration): 68%
IC50 ([5]; manual curve fitting of FIG. 12, 10 μM forskolin, CHO cells, Xenopus receptor): ~0.8 nM
inhibition of forskolin-stimulated cAMP increase in vector-only cells ([5]; melatonin 1×10^−6 M, CHO cells stably transfected with vector lacking the Xenopus cDNA): did not inhibit
effect on basal cAMP levels ([5]; melatonin alone 1×10^−6 M, stably transfected CHO cells): not to alter basal cAMP levels

COc1cc2nc(N3CCN(C(=O)c4ccco4)CC3)nc(N)c2cc1OC [prazosin]
inhibition of specific 125I-Mel binding (human Mel-1b receptor): did not inhibit

Pertussis toxin
effect of pertussis toxin pretreatment on melatonin inhibition of forskolin-stimulated cAMP (sheep Mel-1a receptor): completely abolished
effect of pertussis toxin pretreatment on melatonin inhibition of forskolin-stimulated cAMP (sheep Mel-1a receptor; listed as pertussis toxin): blocks
